Experimental data reported in patent publication US20130259830A1, “CRTH2 MODULATORS” (Ironwood Pharmaceuticals, Inc., priority 2010, published 2013).

What was measured:
CRTH2 [1] = biological target: T1, CRTH2 (Homo sapiens, UniProt Q9Y5Y4); experiment: DPBS CD11b antagonist assay (CD11b expression in eosinophils challenged with 15R-Methyl-PGD2); format: cell-based; settings: polymorphonuclear cells in PBS with CaCl2/MgCl2; agonist 15R-Methyl-PGD2 10 nM; eosinophils gated by flow cytometry
T1 construct: endogenous in cells; host or cells: eosinophils in human whole blood
T1 sequence (Q9Y5Y4 1-395): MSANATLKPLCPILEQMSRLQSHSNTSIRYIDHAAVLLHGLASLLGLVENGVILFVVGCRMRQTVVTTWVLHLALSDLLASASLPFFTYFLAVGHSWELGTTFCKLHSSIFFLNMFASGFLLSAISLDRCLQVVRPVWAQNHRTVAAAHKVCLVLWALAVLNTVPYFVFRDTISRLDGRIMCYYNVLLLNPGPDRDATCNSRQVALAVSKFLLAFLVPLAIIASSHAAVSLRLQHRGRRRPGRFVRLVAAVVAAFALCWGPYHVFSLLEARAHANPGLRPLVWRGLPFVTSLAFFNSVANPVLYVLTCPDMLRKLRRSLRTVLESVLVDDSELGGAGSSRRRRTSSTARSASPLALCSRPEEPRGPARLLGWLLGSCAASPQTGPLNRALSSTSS
Experimental: DPBS CD111b Antagonist Assay.
The potential CRTH2 antagonist, activity of certain compounds was tested using a CD11b expression assay using essentially the method described by Monneret et al. (J Pharmacol Exp Ther 304:349-55, 2003). Briefly, polymorphonuclear cells (0.5 ml; 10^6/ml cells) in PBS containing 0.9 mM CaCl2 and 0.5 mM MgCl2) were preincubated with various concentrations of test compounds at room temperature for 10 minutes before they were challenged with the agonist 15R-Methyl-PGD2 (10 nM). The incubations were terminated by the addition of ice-cold FACSFlow (BD Biosciences; Cat#342003) and centrifugation (400 g for 5 minutes at 4° C.). The cells were then incubated for 30 minutes at 4° C. with a mixture of PE-labeled mouse anti-human VLA-4 (5 μl; BD Biosciences) and FITC-labeled mouse anti-human CD11b (10 μl; Beckman Coulter). The cells were then incubated with Optilyse C (0.25 ml; Beckman Coulter) for 15 minutes, centrifuged, and then fixed in PBS (0.4 ml; calcium and magnesium free) containing 1% formaldehyde. The distribution of fluorescence intensities among 60,000 cells was measured by flow cytometry. Eosinophils were gated out on the basis of their granularity (high side scatter) and labeling with VLA-4 (PE fluorescence). CD11b was then measured in the eosinophil region on the basis of fluorescence due to FITC. All data were corrected for the value obtained for the corresponding isotope control antibody.

CRTH2 [2] = biological target: T1, CRTH2; experiment: Human whole blood CD11b antagonist assay (CD11b expression in eosinophils challenged with 15-R-methyl-PGD2); format: cell-based; settings: 37° C. 10 minutes preincubation, agonist 15R-Methyl-PGD2 10 nM, eosinophils gated by flow cytometry
Experimental: Human Whole Blood […] Antagonist Assay (Modified from Nicholson, et al. Pulmonary Pharmacology and Therapeutics: 20 (2007); 52-59).
The potential CRTH2 antagonist activity of certain compounds was tested in human whole blood using an assay that tests the ability of the compounds to block the CD11b expression in eosinophils by 15-R-methyl-PGD2. A CRTH2 antagonist should block CD11b expression by subsequently added 15-Methyl-PGD2. Human whole blood (200 μL) was incubated at 37° C. for 10 minutes in the presence of various concentrations of test compounds before being challenged with the agonist 1-5R-Methyl-PGD2 (10 nM). Reactions were terminated by the addition of ice-cold PBS+0.5% BSA+2 mM EDTA (1 mL) and centrifugation (300×g for 5 minutes at 4° C.) Cells were then incubated at 4° C. for 10 min in the presence of human IgG. Cells were then incubated for 30-45 min with a mixture of PE-Cy5-labeled mouse anti-human CD16 (10 ul; BD Biosciences) and FITC-labeled mouse anti-human CD11b (10 μL; Beckman Coulter.) After rinsing (1 mL ice-cold PBS+0.5% BSA+2 mM EDTA), red blood cells were lysed by the addition of 1 mL ice-cold H2O to the cell pellet for 30 sec-1 min immediately followed by the addition of 3.5% NaCl (300 μL.) Cells were then rinsed (2×−1 ml ice cold PBS+0.5% BSA+2m MEDTA) and fixed in PBS containing 1% formaldehyde. The distribution of fluorescence intensities was measured by flow cytometry. Eosinophils were gated out on the basis of their granularity (high side scatter) and absence of CD-16. CD11b was then measured on this eosinophil population on the basis of fluorescence due to FITC.

Row | IC50 (CRTH2 [1]) [nM] | IC50 (CRTH2 [2]) [nM] | SMILES
1 | < 1 | 5 to 20 | Cc1c(Cc2ccccc2NS(=O)(=O)c2ccccc2)c2c(n1CC(=O)O)CC(C)(C)CC2=O [Compound I-24, 2-(2,6,6-Trimethyl-4-oxo-3-(2-(phenylsulfonamido)benzyl)-4,5,6,7-tetrahydro-1H-indol-1-yl)acetic acid]
2 | < 1 | 5 to 20 | Cc1c(Cc2ccccc2S(=O)(=O)N2CCCC2)c2c(n1CC(=O)O)CCNC2=O [Compound I-39, 2-(2-Methyl-4-oxo-3-(2-(pyrrolidin-1-ylsulfonyl)benzyl)-4,5,6,7-tetrahydro-1H-pyrrolo[3,2-c]pyridin-1-yl)acetic acid]
3 | < 1 | 20 to 100 | COc1ccc(S(=O)(=O)c2ncccc2Cc2c3c(n(CC(=O)O)c2C)CC(C)(C)CC3=O)cc1 [Compound I-7, 2-(3-((2-(4-methoxyphenylsulfonyl)pyridin-3-yl)methyl)-2,6,6-trimethyl-4-oxo-4,5,6,7-tetrahydro-1H-indol-1-yl)acetic acid]
4 | 100 to 500 | > 3000 | Cc1c(Cc2ccc(S(=O)(=O)c3ccccc3)s2)c2c(n1CC(=O)O)CC(C)(C)CC2=O [Compound I-26, 2-(2,6,6-Trimethyl-4-oxo-3-((5-(phenylsulfonyl)thiophen-2-yl)methyl)-4,5,6,7-tetrahydro-1H-indol-1-yl)acetic acid]
5 | < 1 | 5 to 20 | Cc1c(Cc2cccnc2S(=O)(=O)c2ccccc2C(F)(F)F)c2c(n1CC(=O)O)CC(C)(C)CC2=O [Compound I-17, 2-(2,6,6-Trimethyl-4-oxo-3-((2-(2-(trifluoromethyl)phenylsulfonyl)pyridin-3-yl)methyl)-4,5,6,7-tetrahydro-1H-indol-1-yl)acetic acid]
6 | < 1 | 1 to 5 | Cc1c(Cc2ccccc2NS(=O)(=O)c2ccc(O)cc2)c2c(n1CC(=O)O)CC(C)(C)CC2=O [Compound I-48, 2-(3-(2-(4-Hydroxyphenylsulfonamido)benzyl)-2,6,6-trimethyl-4-oxo-4,5,6,7-tetrahydro-1H-indol-1-yl)acetic acid]
7 | 1 to 5 | 20 to 100 | COc1cccc(S(=O)(=O)c2ncccc2Cc2c3c(n(CC(=O)O)c2C)CC(C)(C)CC3=O)c1 [Compound I-13, 2-(3-((2-(3-Methoxyphenylsulfonyl)pyridin-3-yl)methyl)-2,6,6-trimethyl-4-oxo-4,5,6,7-tetrahydro-1H-indol-1-yl)acetic acid]
8 | < 1 | 1 to 5 | Cc1c(Cc2ccccc2S(=O)(=O)N2CCOCC2)c2c(n1CC(=O)O)CCNC2=O [Compound I-50, 2-(2-Methyl-3-(2-(morpholinosulfonyl)benzyl)-4-oxo-4,5,6,7-tetrahydro-1H-pyrrolo[3,2-c]pyridin-1-yl)acetic acid]
9 | < 1 | < 1 | Cc1c(Cc2sccc2S(=O)(=O)c2ccccc2)c2c(n1CC(=O)O)CC(C)(C)CC2=O [Compound I-42]
10 | < 1 | 1 to 5 | Cc1ccc(S(=O)(=O)Nc2ccccc2Cc2c3c(n(CC(=O)O)c2C)CC(C)(C)CC3=O)cc1 [Compound I-23, 2-(2,6,6-Trimethyl-3-(2-(4-methylphenylsulfonamido)benzyl)-4-oxo-4,5,6,7-tetrahydro-1H-indol-1-yl)acetic acid]
11 | 1 to 5 | 100 to 500 | Cc1c(Cc2ccccc2NS(=O)(=O)N2CCCC2)c2c(n1CC(=O)O)CC(C)(C)CC2=O [Compound I-44]
12 | < 1 | 20 to 100 | Cc1c(Cc2cc3ccccc3n2S(=O)(=O)N2CCOCC2)c2c(n1CC(=O)O)CC(C)(C)CC2=O [Compound I-37]

Further lines, the compound ahead of its results:

Row | SMILES | IC50 (CRTH2 [1]) [nM] | IC50 (CRTH2 [2]) [nM]
13 | Cc1c(Cc2ccccc2NS(=O)(=O)c2ccc(C(C)C)cc2)c2c(n1CC(=O)O)CC(C)(C)CC2=O [Compound I-27, 2-(3-(2-(4-Isopropylphenylsulfonamido)benzyl)-2,6,6-trimethyl-4-oxo-4,5,6,7-tetrahydro-1H-indol-1-yl)acetic acid] | < 1 | 20 to 100
14 | CCOC(=O)Cn1c(C)c(Cc2cccnc2S(=O)(=O)c2ccc(C(F)(F)F)cc2)c2c1CC(C)(C)CC2=O [Compound I-10, Ethyl 2-(2,6,6-trimethyl-4-oxo-3-((2-(4-(trifluoromethyl)phenylsulfonyl)pyridin-3-yl)methyl)-4,5,6,7-tetrahydro-1H-indol-1-yl)acetate] | 1 to 5 | 100 to 500
15 | Cc1c(Cc2ccccc2N(C)S(=O)(=O)c2ccc(C(C)C)cc2)c2c(n1CC(=O)O)CC(C)(C)CC2=O [Compound I-34, 2-(3-(2-(4-Isopropyl-N-methylphenylsulfonamido)benzyl)-2,6,6-trimethyl-4-oxo-4,5,6,7-tetrahydro-1H-indol-1-yl)acetic acid] | 5 to 20 | 500 to 3000
16 | CCOC(=O)Cn1c(C)c(Cc2cccnc2S(=O)(=O)c2ccc(Cl)cc2)c2c1CC(C)(C)CC2=O [Compound I-14, Ethyl 2-(3-((2-(4-chlorophenylsulfonyl)pyridin-3-yl)methyl)-2,6,6-trimethyl-4-oxo-4,5,6,7-tetrahydro-1H-indol-1-yl)acetate] | 100 to 500 | 500 to 3000
17 | Cc1c(Sc2ccccc2NS(=O)(=O)c2ccccc2)c2c(n1CC(=O)O)CC(C)(C)CC2 [Compound I-52, 2-(2,6,6-trimethyl-3-(2-(phenylsulfonamido)phenylthio)-4,5,6,7-tetrahydro-1H-indol-1-yl)acetic acid] | < 1 | 5 to 20
18 | CCOC(=O)Cn1c(C)c(Cc2cccnc2S(=O)(=O)c2ccccc2)c2c1CC(C)(C)CC2=O [Compound I-9, ethyl 2-(2,6,6-trimethyl-4-oxo-3-((2-(phenylsulfonyl)pyridin-3-yl)methyl)-4,5,6,7-tetrahydro-1H-indol-1-yl)acetate] | 100 to 500 | 500 to 3000
19 | CCOC(=O)Cn1c(C)c(Cc2cccnc2S(=O)(=O)c2ccc(F)cc2F)c2c1CC(C)(C)CC2=O [Compound I-18, Ethyl 2-(3-((2-(2,4-difluorophenylsulfonyl)pyridin-3-yl)methyl)-2,6,6-trimethyl-4-oxo-4,5,6,7-tetrahydro-1H-indol-1-yl)acetate] | 100 to 500 | 500 to 3000
20 | Cc1c(Cc2ccccc2NS(=O)(=O)c2ccc(OCc3ccccc3)cc2)c2c(n1CC(=O)O)CC(C)(C)CC2=O [Compound I-46, 2-(3-(2-(4-(Benzyloxy)phenylsulfonamido)benzyl)-2,6,6-trimethyl-4-oxo-4,5,6,7-tetrahydro-1H-indol-1-yl)acetic acid] | < 1 | 5 to 20
21 | Cc1c(Cc2ccccc2NS(=O)(=O)c2ccc(C(F)(F)F)cc2)c2c(n1CC(=O)O)CC(C)(C)CC2=O [Compound I-25, 2-(2,6,6-Trimethyl-4-oxo-3-(2-(4-(trifluoromethyl)phenylsulfonamido)benzyl)-4,5,6,7-tetrahydro-1H-indol-1-yl)acetic acid] | < 1 | 20 to 100
22 | CCOC(=O)Cn1c(C)c(Cc2cccnc2S(=O)(=O)c2ccc(OC)cc2)c2c1CC(C)(C)CC2=O [Compound I-6, ethyl 2-(3-((2-(4-methoxyphenylsulfonyl)pyridin-3-yl)methyl)-2,6,6-trimethyl-4-oxo-4,5,6,7-tetrahydro-1H-indol-1-yl)acetate] | 5 to 20 | 500 to 3000
